The source of these data is patent US8822469B2, “Pyrrolo[2,3-B]pyrazines useful as inhibitors of ATR kinase” (Vertex Pharmaceuticals Incorporated, priority 2011, dated 2014).

The target in this assay is T1, full-length ATR (Homo sapiens, UniProt Q13535).
T1 construct: Assays were carried out at 25° C. in the presence of 5 nM full-length ATR
Nature of the assay: ATR Inhibition Assay (radioactive-phosphate incorporation). Type of assay: biochemical. As to conditions: Ki(app); 5 nM full-length ATR, 10 μM [γ-33P]ATP, 800 μM target peptide, 25° C. As for the experimental part:
Compounds were screened for their ability to inhibit ATR kinase using a radioactive-phosphate incorporation assay. Assays were carried out in a mixture of 50 mM Tris/HCl (pH 7.5), 10 mM MgCl2 and 1 mM DTT. Final substrate concentrations were 10 μM [γ-33P]ATP (3mCi 33P ATP/mmol ATP, Perkin Elmer) and 800 μM target peptide (ASELPASQPQPFSAKKK).
Assays were carried out at 25° C. in the presence of 5 nM full-length ATR. An assay stock buffer solution was prepared containing all of the reagents listed above, with the exception of ATP and the test compound of interest. 13.5 μL of the stock solution was placed in a 96 well plate followed by addition of 2 μL of DMSO stock containing serial dilutions of the test compound (typically starting from a final concentration of 15 μM with 3-fold serial dilutions) in duplicate (final DMSO concentration 7%). The plate was pre-incubated for 10 minutes at 25° C. and the reaction initiated by addition of 15 μL [γ-33P]ATP (final concentration 10 μM).
The reaction was stopped after […] by the addition of 30 μL 0.1M phosphoric acid containing 2 mM ATP. A multiscreen phosphocellulose filter 96-well plate (Millipore, Cat no. MAPHN0B50) was pretreated with 100 μL 0.2M phosphoric acid prior to the addition of 45 μL of the stopped assay mixture. The plate was washed with 5×200 μL 0.2M phosphoric acid. After drying, 100 μL Optiphase ‘SuperMix’ liquid scintillation cocktail (Perkin Elmer) was added to the well prior to scintillation counting (1450 Microbeta Liquid Scintillation Counter, Wallac).
After removing mean background values for all of the data points, Ki(app) data were calculated from non-linear regression analysis of the initial rate data using the Prism software package (GraphPad Prism version 3.0cx for Macintosh, GraphPad Software, San Diego Calif., USA).

Some results are limits rather than exact numbers.

T1 sequence (Q13535 whole entry): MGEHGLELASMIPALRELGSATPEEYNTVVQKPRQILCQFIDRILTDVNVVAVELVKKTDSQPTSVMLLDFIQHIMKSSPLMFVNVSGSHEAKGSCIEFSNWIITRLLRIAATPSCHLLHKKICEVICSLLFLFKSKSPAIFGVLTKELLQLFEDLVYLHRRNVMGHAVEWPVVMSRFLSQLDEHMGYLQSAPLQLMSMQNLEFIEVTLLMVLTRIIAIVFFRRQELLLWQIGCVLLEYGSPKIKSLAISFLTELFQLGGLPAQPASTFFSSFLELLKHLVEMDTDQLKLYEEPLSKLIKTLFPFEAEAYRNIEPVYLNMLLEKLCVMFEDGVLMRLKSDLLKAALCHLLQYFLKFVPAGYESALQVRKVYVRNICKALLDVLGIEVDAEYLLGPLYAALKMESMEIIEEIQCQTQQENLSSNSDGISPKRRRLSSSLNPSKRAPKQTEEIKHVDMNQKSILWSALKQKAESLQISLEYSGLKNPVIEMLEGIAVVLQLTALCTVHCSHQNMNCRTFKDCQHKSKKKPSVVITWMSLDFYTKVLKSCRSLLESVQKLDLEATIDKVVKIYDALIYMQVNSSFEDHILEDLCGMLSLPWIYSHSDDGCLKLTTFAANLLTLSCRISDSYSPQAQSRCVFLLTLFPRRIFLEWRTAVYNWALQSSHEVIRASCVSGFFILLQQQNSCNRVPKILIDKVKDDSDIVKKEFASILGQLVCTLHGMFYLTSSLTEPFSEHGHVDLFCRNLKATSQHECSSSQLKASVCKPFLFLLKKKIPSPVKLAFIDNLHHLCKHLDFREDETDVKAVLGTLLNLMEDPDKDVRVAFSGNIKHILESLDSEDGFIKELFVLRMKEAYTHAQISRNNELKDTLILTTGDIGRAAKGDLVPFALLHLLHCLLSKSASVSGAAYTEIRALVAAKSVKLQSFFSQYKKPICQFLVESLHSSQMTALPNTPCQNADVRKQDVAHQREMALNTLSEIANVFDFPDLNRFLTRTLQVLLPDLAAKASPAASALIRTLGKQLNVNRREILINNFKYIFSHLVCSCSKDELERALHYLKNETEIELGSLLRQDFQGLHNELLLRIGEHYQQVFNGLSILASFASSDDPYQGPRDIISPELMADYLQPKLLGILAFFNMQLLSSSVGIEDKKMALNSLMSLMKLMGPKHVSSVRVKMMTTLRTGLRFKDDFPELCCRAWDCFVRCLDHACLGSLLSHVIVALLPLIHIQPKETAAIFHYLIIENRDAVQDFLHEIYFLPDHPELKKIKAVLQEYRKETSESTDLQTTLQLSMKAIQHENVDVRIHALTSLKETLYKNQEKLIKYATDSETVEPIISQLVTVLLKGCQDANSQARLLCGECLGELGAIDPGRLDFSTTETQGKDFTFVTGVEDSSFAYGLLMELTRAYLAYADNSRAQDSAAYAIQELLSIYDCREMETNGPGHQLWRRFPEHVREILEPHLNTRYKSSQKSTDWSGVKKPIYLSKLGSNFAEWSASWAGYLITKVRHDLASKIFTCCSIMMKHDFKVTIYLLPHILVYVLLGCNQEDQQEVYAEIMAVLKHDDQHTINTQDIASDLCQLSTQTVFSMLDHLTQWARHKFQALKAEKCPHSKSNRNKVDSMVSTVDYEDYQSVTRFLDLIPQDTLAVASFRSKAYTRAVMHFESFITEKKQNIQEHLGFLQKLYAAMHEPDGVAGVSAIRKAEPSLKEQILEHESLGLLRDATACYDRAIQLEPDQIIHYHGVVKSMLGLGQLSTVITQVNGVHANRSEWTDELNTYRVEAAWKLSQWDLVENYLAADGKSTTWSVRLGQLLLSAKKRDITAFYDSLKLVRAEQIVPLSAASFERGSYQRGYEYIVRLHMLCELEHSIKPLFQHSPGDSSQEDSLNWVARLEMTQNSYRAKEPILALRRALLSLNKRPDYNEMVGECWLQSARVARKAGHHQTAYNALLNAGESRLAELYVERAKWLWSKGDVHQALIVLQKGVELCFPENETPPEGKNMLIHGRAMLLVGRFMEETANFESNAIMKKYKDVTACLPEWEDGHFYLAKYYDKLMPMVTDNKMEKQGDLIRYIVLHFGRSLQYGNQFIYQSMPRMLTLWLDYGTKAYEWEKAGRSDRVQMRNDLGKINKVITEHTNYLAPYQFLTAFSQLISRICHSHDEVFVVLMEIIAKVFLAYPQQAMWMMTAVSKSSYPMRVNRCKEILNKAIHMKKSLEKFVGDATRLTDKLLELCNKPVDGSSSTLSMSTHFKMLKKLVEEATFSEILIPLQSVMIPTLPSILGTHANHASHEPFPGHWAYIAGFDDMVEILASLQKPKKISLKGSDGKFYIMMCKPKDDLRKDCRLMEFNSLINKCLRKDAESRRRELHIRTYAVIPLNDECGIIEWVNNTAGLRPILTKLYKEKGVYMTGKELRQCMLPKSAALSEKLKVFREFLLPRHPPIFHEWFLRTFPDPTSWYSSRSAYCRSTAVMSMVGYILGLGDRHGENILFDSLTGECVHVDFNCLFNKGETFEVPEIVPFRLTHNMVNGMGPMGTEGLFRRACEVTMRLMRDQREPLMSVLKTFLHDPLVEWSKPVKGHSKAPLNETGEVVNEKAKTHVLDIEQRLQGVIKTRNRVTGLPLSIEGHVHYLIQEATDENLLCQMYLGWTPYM

As for `CC(C)S(=O)(=O)c1ccc(-c2cnc3[nH]cc(NC(=O)c4ccccc4)c3n2)cc1` [Compound I-1, N-(2-(4-(isopropylsulfonyl)phenyl)-5H-pyrrolo[2,3-b]pyrazin-7-yl)benzamide], the Ki was not above 10 nM.

As for `CC(C)S(=O)(=O)c1ccc(-c2cnc3[nH]cc(NC(=O)c4cccc(N)c4)c3n2)cc1` [Compound I-2, 3-amino-N-[2-(4-isopropylsulfonylphenyl)-5H-pyrrolo[2,3-b]pyrazin-7-yl]benzamide], the Ki was not above 10 nM.

Turning to `CC(C)S(=O)(=O)c1ccc(-c2cnc3[nH]cc(NC(=O)c4ccc(N)cc4)c3n2)cc1` [Compound I-3, 4-amino-N-[2-(4-isopropylsulfonylphenyl)-5H-pyrrolo[2,3-b]pyrazin-7-yl]benzamide], the Ki is 10 to 100 nM.

Regarding `CNCc1ccc(C(=O)Nc2c[nH]c3ncc(-c4ccc(S(=O)(=O)C(C)C)cc4)nc23)cc1` [Compound I-4, N-[2-(4-isopropylsulfonylphenyl)-5H-pyrrolo[2,3-b]pyrazin-7-yl]-4-(methylaminomethyl)benzamide], the Ki was not above 10 nM.

Regarding `CC(C)S(=O)(=O)c1ccc(-c2cnc3[nH]cc(NC(=O)c4ccc(CN[C@H]5CCOC5)cc4)c3n2)cc1` [Compound I-5, N-[2-(4-isopropylsulfonylphenyl)-5H-pyrrolo[2,3-b]pyrazin-7-yl]-4-[[[(3S)-tetrahydrofuran-3-yl]amino]methyl]benzamide], the Ki is not above 10 nM.

Consider `CNCc1cccc(C(=O)Nc2c[nH]c3ncc(-c4ccc(S(=O)(=O)C(C)C)cc4)nc23)c1` [Compound I-6, N-[2-(4-isopropylsulfonylphenyl)-5H-pyrrolo[2,3-b]pyrazin-7-yl]-3-(methylaminomethyl)benzamide], for which the Ki is not above 10 nM.

As to `CC(C)S(=O)(=O)c1ccc(-c2cnc3[nH]cc(NC(=O)c4cccc(C(=O)O)c4)c3n2)cc1` [Compound I-7, 3-[[2-(4-isopropylsulfonylphenyl)-5H-pyrrolo[2,3-b]pyrazin-7-yl]carbamoyl]benzoic acid], the Ki lay in the range of 100 to 500 nM.

Consider `CC(CCO)S(=O)(=O)c1ccc(-c2cnc3[nH]cc(NC(=O)c4ccccc4)c3n2)cc1` (stereo not shown) [Compound I-8], for which the Ki was not above 10 nM.

Regarding `CC(C)C(=O)Nc1c[nH]c2ncc(-c3ccc(S(=O)(=O)C(C)C)cc3)nc12` [Compound I-9, N-(2-(4-(isopropylsulfonyl)phenyl)-5H-pyrrolo[2,3-b]pyrazin-7-yl)isobutyramide], the Ki was 100 to 500 nM.

Regarding `CC(C)S(=O)(=O)c1ccc(-c2cnc3[nH]cc(NC(=O)Cc4ccccc4)c3n2)cc1` [Compound I-10, N-[2-(4-isopropylsulfonylphenyl)-5H-pyrrolo[2,3-b]pyrazin-7-yl]-2-phenyl-acetamide], the Ki lay within 100 to 500 nM.

As to `COc1ccccc1C(=O)Nc1c[nH]c2ncc(-c3ccc(S(=O)(=O)C(C)C)cc3)nc12` [Compound I-11, N-[2-(4-isopropylsulfonylphenyl)-5H-pyrrolo[2,3-b]pyrazin-7-yl]-2-methoxy-benzamide], the “ATR Inhibition Ki” value is reported as “none”.

`CC(C)S(=O)(=O)c1ccc(-c2cnc3[nH]cc(NC(=O)c4cccc(CN)c4)c3n2)cc1` [Compound I-12, 3-(aminomethyl)-N-[2-(4-isopropylsulfonylphenyl)-5H-pyrrolo[2,3-b]pyrazin-7-yl]benzamide]: the Ki lay within 10 to 100 nM.

Regarding `CC(C)S(=O)(=O)c1ccc(-c2cnc3[nH]cc(NC(=O)c4cccc(Cl)c4)c3n2)cc1` [Compound I-13], the Ki was in the range of 10 to 100 nM.

Regarding `CC(C)S(=O)(=O)c1ccc(-c2cnc3[nH]cc(NC(=O)c4ccccc4O)c3n2)cc1` [Compound I-14, 2-hydroxy-N-(2-(4-(isopropylsulfonyl)phenyl)-5H-pyrrolo[2,3-b]pyrazin-7-yl)benzamide], the Ki is not above 10 nM.

For `CC(C)S(=O)(=O)c1ccc(-c2cnc3[nH]cc(NC(=O)c4ccccc4F)c3n2)cc1` [Compound I-15, 2-fluoro-N-[2-(4-isopropylsulfonylphenyl)-5H-pyrrolo[2,3-b]pyrazin-7-yl]benzamide], the Ki is 10 to 100 nM.

In the case of `CC(C)S(=O)(=O)c1ccc(-c2cnc3[nH]cc(NC(=O)c4ccc(Cl)cc4)c3n2)cc1` [Compound I-16, 4-chloro-N-[2-(4-isopropylsulfonylphenyl)-5H-pyrrolo[2,3-b]pyrazin-7-yl]benzamide], the Ki was in the range of 10 to 100 nM.

For the molecule `CC(C)S(=O)(=O)c1ccc(-c2cnc3[nH]cc(NC(=O)c4ccncc4)c3n2)cc1` [Compound I-17, N-[2-(4-isopropylsulfonylphenyl)-5H-pyrrolo[2,3-b]pyrazin-7-yl]pyridine-4-carboxamide], the Ki was 10 to 100 nM.

In the case of `CC(C)S(=O)(=O)c1ccc(-c2cnc3[nH]cc(NC(=O)c4ccc(O)cc4)c3n2)cc1` [Compound I-18, 4-hydroxy-N-[2-(4-isopropylsulfonylphenyl)-5H-pyrrolo[2,3-b]pyrazin-7-yl]benzamide], the Ki is not above 10 nM.

Regarding `CC(C)S(=O)(=O)c1ccc(-c2cnc3[nH]cc(NS(=O)(=O)c4ccccc4)c3n2)cc1` [Compound I-19], the Ki was 100 to 500 nM.

Turning to `CC(C)S(=O)(=O)c1ccc(-c2cnc3[nH]cc(NC(=O)c4ccc(N5CCC(N)CC5)cc4)c3n2)cc1` [Compound I-20, 4-(4-amino-1-piperidyl)-N-[2-(4-isopropylsulfonylphenyl)-5H-pyrrolo[2,3-b]pyrazin-7-yl]benzamide], the Ki fell in the range of 10 to 100 nM.

On to `CC(C)S(=O)(=O)c1ccc(-c2cnc3[nH]cc(NC(=O)c4cccc(C5CNCCN5)c4)c3n2)cc1` (stereo not shown) [Compound I-21, N-[2-(4-isopropylsulfonylphenyl)-5H-pyrrolo[2,3-b]pyrazin-7-yl]-3-piperazin-2-yl-benzamide], for which the Ki was in the range of 10 to 100 nM.

`CC(C)S(=O)(=O)c1ccc(-c2cnc3[nH]cc(NC(=O)c4ccc(N5CC[C@H](N)C5)cc4)c3n2)cc1` [Compound I-22, 4-[(3S)-3-aminopyrrolidin-1-yl]-N-[2-(4-isopropylsulfonylphenyl)-5H-pyrrolo[2,3-b]pyrazin-7-yl]benzamide]: the Ki was not above 10 nM.

For the molecule `CC(C)S(=O)(=O)c1ccc(-c2cnc3[nH]cc(NC(=O)c4ccc(N5CCC[C@@H](N)C5)cc4)c3n2)cc1` [Compound I-23, 4-[(3R)-3-amino-1-piperidyl]-N-[2-(4-isopropylsulfonylphenyl)-5H-pyrrolo[2,3-b]pyrazin-7-yl]benzamide], the Ki was not above 10 nM.

As to `CC(C)S(=O)(=O)c1ccc(-c2cnc3[nH]cc(NC(=O)c4ccc5c(c4)CNC5)c3n2)cc1` [Compound I-24, N-[2-(4-isopropylsulfonylphenyl)-5H-pyrrolo[2,3-b]pyrazin-7-yl]isoindoline-5-carboxamide], the Ki is not above 10 nM.

For `CC(C)S(=O)(=O)c1ccc(-c2cnc3[nH]cc(NC(=O)c4ccc5c(c4)CNCC5)c3n2)cc1` [Compound I-25, N-[2-(4-isopropylsulfonylphenyl)-5H-pyrrolo[2,3-b]pyrazin-7-yl]-1,2,3,4-tetrahydroisoquinoline-7-carboxamide], the Ki was not above 10 nM.

For the molecule `CC(C)S(=O)(=O)c1ccc(-c2cnc3[nH]cc(NC(=O)c4cc5c(s4)CCNC5)c3n2)cc1` [Compound I-26, N-[2-(4-isopropylsulfonylphenyl)-5H-pyrrolo[2,3-b]pyrazin-7-yl]-4,5,6,7-tetrahydrothieno[3,2-c]pyridine-2-carboxamide], the Ki is not above 10 nM.

As for `CC(C)S(=O)(=O)c1ccc(-c2cnc3[nH]cc(NC(=O)c4cc5c(s4)CNCC5)c3n2)cc1` [Compound I-27, N-[2-(4-isopropylsulfonylphenyl)-5H-pyrrolo[2,3-b]pyrazin-7-yl]-4,5,6,7-tetrahydrothieno[2,3-c]pyridine-2-carboxamide], the Ki was not above 10 nM.

For `CC(C)S(=O)(=O)c1ccc(-c2cnc3[nH]cc(NC(=O)c4ccc(C5CCCN5)cc4)c3n2)cc1` (stereo not shown) [Compound I-28, N-[2-(4-isopropylsulfonylphenyl)-5H-pyrrolo[2,3-b]pyrazin-7-yl]-4-pyrrolidin-2-yl-benzamide], the Ki was not above 10 nM.

Regarding `CC(C)S(=O)(=O)c1ccc(-c2cnc3[nH]cc(NC(=O)c4ccc(OCCN(C)C)cc4)c3n2)cc1` [Compound I-29, 4-(2-dimethylaminoethyloxy)-N-[2-(4-isopropylsulfonylphenyl)-5H-pyrrolo[2,3-b]pyrazin-7-yl]benzamide], the Ki is not above 10 nM.

With `CC(C)S(=O)(=O)c1ccc(-c2cnc3[nH]cc(NC(=O)c4ccc(NC5CNC5)cc4)c3n2)cc1` [Compound I-30, 4-(azetidin-3-ylamino)-N-[2-(4-isopropylsulfonylphenyl)-5H-pyrrolo[2,3-b]pyrazin-7-yl]benzamide], the Ki was not above 10 nM.

In the case of `COc1cccc(C(=O)Nc2c[nH]c3ncc(-c4ccc(S(=O)(=O)C(C)C)cc4)nc23)n1` [Compound I-31, N-[2-(4-isopropylsulfonylphenyl)-5H-pyrrolo[2,3-b]pyrazin-7-yl]-6-methoxy-pyridine-2-carboxamide], the Ki is 10 to 100 nM.
